The compounds below were run on tumor cell (assay: Cytotoxicity assay (MTS)). Conditions: 72 h; incubation for three days; read-out: IC50, tumor cell growth inhibition (MTS).
Assay type: cell-based
Method: The efficacy of a test compound in inhibiting tumor cell growth was analyzed using a MTS assay. The MTS assay is a calorimetric method for the determination of viable cells in proliferation by using a tetrazolium compound (3-(4,5-dimethylthiazol-2-yl)-5-(3-[…])-2-(4-sulfophenyl)-2H-tetrazolium, inner salt; MTS) and an electron-coupling agent (phenazine methosulfate; PMS). The MTS reagent is converted by dehydrogenase enzymes in metabolically active cells into a formazan that is soluble in a tissue culture medium.
In this assay, tumor cell suspensions (30 μl/well) were seeded into 384-well flat-bottomed tissue culture plates at an appropriate density overnight. A fresh medium (3 μl/well) containing varying concentrations of a test compound or vehicle was added to the culture followed by incubation for three days. At the end of the incubation, all plates were processed simultaneously as follows: The culture medium was aspirated, a MTS cell proliferation assay (Promega) solution (30 μl/well) was added, and the plates were incubated at 37° C. for about 2 hours. Absorbance (a parameter proportional to the cell mass) was measured at 490 nm using a Multiskan (Thermo Electron Corporation, Waltham, Mass.). Inhibition effects were expressed as corrected T/C values for each test compound according to the following equation:
T/C=(T−Blank)/(C−Blank)×100(%),
where T is the mean absorbance of the treated cells, C is the mean absorbance of the controls, and Blank is the mean absorbance of the cell free well.

Row | Compound | IC50 [µM]
1 | Cc1ccc(C(=O)N(CCN)C(c2nc3c(oc4ccc(F)cc43)c(=O)n2Cc2ccsc2)C(C)C)cc1 (stereo not shown) [Compound 75] | < 30
2 | Cc1ccc(C(=O)N(CCN)C(c2nc3c(oc4ccc(Br)cc43)c(=O)n2Cc2ccccc2)C(C)C)cc1 (stereo not shown) [Compound 37] | < 30
3 | CC(C)[C@H](c1nc2c(oc3ccc(F)cc32)c(=O)n1Cc1cccc(F)c1)N(CCN)C(=O)c1ccc(Br)cc1 [Compound 203] | < 30
4 | CC(C)[C@H](c1nc2c(oc3ccc(F)cc32)c(=O)n1Cc1ccccc1)N(CCN)C(=O)c1ccc(Cl)cc1 [Compound 193] | < 30
5 | Cc1ccc(C(=O)N(CCCN)C(c2nc3nc4ccccc4nc3c(=O)n2Cc2ccccc2)C(C)C)cc1 (stereo not shown) [Compound 10] | < 30
6 | Cc1ccc(C(=O)N(CCN)C(c2nc3c(oc4ccccc43)c(=O)n2Cc2ccc(Cl)s2)C(C)C)cc1 (stereo not shown) [Compound 160] | < 30
7 | CC(C)[C@H](c1nc2c(oc3ccc(F)cc32)c(=O)n1Cc1ccccc1)N(CCN)C(=O)c1ccc(Br)cc1 [Compound 205] | < 30
8 | Cc1ccc(C(=O)N(CCCN)C(c2nc3c(oc4ccc(F)cc43)c(=O)n2Cc2ccc(Cl)o2)C(C)C)cc1 (stereo not shown) [Compound 91] | < 30
9 | Cc1ccc(C(=O)N(CCCN)C(c2nc3c(I)c4ccccc4cc3c(=O)n2Cc2ccccc2)C(C)C)cc1 (stereo not shown) [Compound 9] | < 30
10 | CC(C)C(c1nc2c(oc3ccc(F)cc32)c(=O)n1Cc1ccc(C#N)s1)N(CCN)C(=O)c1ccc(Br)cc1 (stereo not shown) [Compound 173] | < 30
11 | Cc1ccc(C(=O)N(CCN)[C@@H](c2nc3c(oc4ccc(F)cc43)c(=O)n2Cc2ccoc2)C(C)C)cc1F [Compound 197] | < 30
12 | CCC(c1nn2c(cc3ccccc32)c(=O)n1Cc1ccccc1)N(CCCN)C(=O)c1ccc(C)cc1 (stereo not shown) [Compound 159] | < 30
13 | Cc1ccc(C(=O)N(CCN)C(c2nc3c(oc4ccc(F)cc43)c(=O)n2Cc2ccc(C#N)o2)C(C)C)cc1 (stereo not shown) [Compound 111] | < 30
14 | Cc1ccc(C(=O)N(CCN)C(c2nc3c(oc4ccccc43)c(=O)n2Cc2ccc(Br)s2)C(C)C)cc1 (stereo not shown) [Compound 164] | < 30
15 | Cc1ccc(C(=O)N(CCCN)C(c2nc3c(oc4ccccc43)c(=O)n2Cc2ccc(Cl)s2)C(C)C)cc1 (stereo not shown) [Compound 16] | < 30
16 | Cc1ccc(C(=O)N(CCCN)C(c2nc3c(oc4ccccc43)c(=O)n2Cc2ccccc2F)C(C)C)cc1 (stereo not shown) [Compound 27] | < 30
17 | Cc1ccc(C(=O)N(CCCN)C(c2nc3c(Br)c4ccccc4cc3c(=O)n2Cc2ccc(Cl)s2)C(C)C)cc1 (stereo not shown) [Compound 6] | < 30
18 | Cc1ccc(C(=O)N(CCCN)C(c2nc3cc4ccccc4cc3c(=O)n2Cc2ccc(Cl)s2)C(C)C)cc1 (stereo not shown) [Compound 5] | < 30
19 | Cc1ccc(C(=O)N(CCN)C(c2nc3c(oc4ccc(F)cc43)c(=O)n2Cc2ccccc2)C(C)C)cc1 (stereo not shown) [Compound 105] | < 30
20 | Cc1ccc(C(=O)N(CCN)C(c2nc3c(oc4ccc(Cl)cc43)c(=O)n2Cc2ccc(/C=C/O)s2)C(C)C)cc1 (stereo not shown) [Compound 134] | < 30
21 | Cc1ccc(C(=O)N(CCN)[C@@H](c2nc3c(oc4ccc(F)cc43)c(=O)n2Cc2cccs2)C2CC2)cc1 [Compound 226] | < 30

Row | Compound | IC50 [µM]
22 | Cc1ccc(C(=O)N(CCN)C(c2nc3c(oc4ccccc43)c(=O)n2Cc2ccc(Br)o2)C(C)C)cc1 (stereo not shown) [Compound 165] | < 30
23 | Cc1ccc(C(=O)N(CCN)C(c2nc3c(oc4ccc(F)cc43)c(=O)n2Cc2ccc(C(=O)NC(C)C)o2)C(C)C)cc1 (stereo not shown) [Compound 119] | < 30
24 | Cc1ccc(C(=O)N(CCN)C(c2nc3c(oc4ccc(Cl)cc43)c(=O)n2Cc2cc(Br)cs2)C(C)C)cc1 (stereo not shown) [Compound 49] | < 30
25 | CCC(c1nc2c(oc3ccccc32)c(=O)n1Cc1ccccc1)N(CCCCN(C)C)C(=O)c1ccc(Br)cc1 (stereo not shown) [Compound 24] | < 30
26 | CC(C)C(c1nc2c(oc3ccc(F)cc32)c(=O)n1Cc1ccc(Cl)o1)N(CCN)C(=O)c1ccc(C(F)(F)F)cc1 (stereo not shown) [Compound 171] | < 30
27 | Cc1ccc(C(=O)N(CCN)[C@@H](c2nc3c(oc4ccc(F)cc43)c(=O)n2Cc2ccccc2)C2CC2)cc1 [Compound 225] | < 30
28 | Cc1ccc(C(=O)N(CCN)C(c2nc3c(oc4ccc(Cl)cc43)c(=O)n2Cc2cc(C#N)cs2)C(C)C)cc1 (stereo not shown) [Compound 129] | < 30
29 | Cc1ccc(C(=O)N(CCN)C(c2nc3c(oc4ccc(Cl)cc43)c(=O)n2Cc2cccc(F)c2)C(C)C)cc1 (stereo not shown) [Compound 96] | < 30
30 | Cc1csc(Cn2c(C(C(C)C)N(CCN)C(=O)c3ccc(Cl)cc3)nc3c(oc4ccc(F)cc43)c2=O)c1 (stereo not shown) [Compound 166] | < 30
31 | Cc1ccc(C(=O)N(CCCN)[C@@H](c2nc3c(oc4ccccc43)c(=O)n2Cc2ccccc2)C(C)C)cc1 [Compound 175] | < 30
32 | Cc1ccc(C(=O)N(CCCN)C(c2nc3c(sc4ncccc43)c(=O)n2Cc2ccccc2)C(C)C)cc1 (stereo not shown) [Compound 156] | < 30
33 | Cc1ccc(C(=O)N(CCN)C(c2nc3c(oc4ccccc43)c(=O)n2Cc2cc(C)cs2)C(C)C)cc1 (stereo not shown) [Compound 161] | < 30
34 | Cc1ccc(C(=O)N(CCCN)C(c2nc3c(sc4ccccc43)c(=O)n2Cc2ccc(Cl)s2)C(C)C)cc1 (stereo not shown) [Compound 138] | < 30
35 | Cc1ccc(C(=O)N(CCN)C(c2nc3c(oc4ccc(Cl)cc43)c(=O)n2Cc2ccc(Cl)s2)C(C)C)cc1 (stereo not shown) [Compound 46] | < 30
36 | Cc1ccc(C(=O)N(CCN)[C@@H](c2nc3c(oc4ccc(F)cc43)c(=O)n2Cc2ccccc2)C(C)C)cc1 [Compound 191] | < 30
37 | CCC(c1nc2c(oc3ccc(Cl)cc32)c(=O)n1Cc1ccccc1)N(CCCN)C(=O)c1ccc(C)cc1 (stereo not shown) [Compound 31] | < 30
38 | CC(C)C(c1nc2c(oc3ccc(F)cc32)c(=O)n1Cc1ccccc1)N(CCN)C(=O)c1ccc(Br)cc1 (stereo not shown) [Compound 65] | < 30
39 | CC(C)[C@H](c1nc2c(oc3ccc(F)cc32)c(=O)n1Cc1cccs1)N(CCN)C(=O)c1ccc(Br)cc1 [Compound 201] | < 30
40 | Cc1ccc(C(=O)N(CCN)C(c2nc3c(oc4ccc(F)cc43)c(=O)n2Cc2ccc(Cl)o2)C(C)C)cc1 (stereo not shown) [Compound 90] | < 30
41 | CC(C)C(c1nc2c(oc3ccc(F)cc32)c(=O)n1Cc1ccc(Cl)o1)N(CCN)C(=O)c1ccc(Cl)cc1 (stereo not shown) [Compound 169] | < 30
42 | CC(C)C(c1nc2c(sc3ccc(F)cc32)c(=O)n1Cc1ccccc1)N(CCCN)C(=O)c1ccc(Br)cc1 (stereo not shown) [Compound 140] | < 30

Row | Compound | IC50 [µM]
43 | CCC(c1nc2c(oc3ccccc32)c(=O)n1Cc1ccccc1)N(CCCN(C)C)C(=O)c1ccc(C)cc1 (stereo not shown) [Compound 19] | < 30
44 | Cc1ccc(C(=O)N(CCCN)C(c2nc3c(oc4ccccc43)c(=O)n2Cc2ccccc2O)C(C)C)cc1 (stereo not shown) [Compound 29] | < 30
45 | Cc1ccc(C(=O)N(CCN)[C@@H](c2nc3c(oc4ccc(F)cc43)c(=O)n2Cc2ccoc2)C(C)C)cc1 [Compound 196] | < 30
46 | Cc1ccc(C(=O)N(CCN)[C@@H](c2nc3c(oc4ccc(F)cc43)c(=O)n2Cc2cc(Br)cs2)C(C)C)cc1 [Compound 215] | < 30
47 | Cc1ccc(C(=O)N(CCN)C(c2nc3c(oc4ccc(Cl)cc43)c(=O)n2Cc2ccc(C(F)(F)F)o2)C(C)C)cc1 (stereo not shown) [Compound 101] | < 30
48 | Cc1ccc(C(=O)N(CCCN)C(c2nc3c(oc4cc(F)ccc43)c(=O)n2Cc2ccccc2)C(C)C)cc1 (stereo not shown) [Compound 106] | < 30
49 | Cc1ccc(C(=O)N(CCN)[C@@H](c2nc3c(oc4ccc(F)cc43)c(=O)n2Cc2ccc(Cl)o2)C2CC2)cc1 [Compound 224] | < 30
50 | Cc1ccc(C(=O)N(CCN)C(c2nc3c(oc4ccc(Cl)cc43)c(=O)n2Cc2ccoc2)C(C)C)cc1 (stereo not shown) [Compound 126] | < 30
51 | CC(C)C(c1nc2n(c(=O)c1Cc1ccccc1)Cc1ccccc1-2)N(CCCN)C(=O)c1ccc(Br)cc1 (stereo not shown) [Compound 155] | < 30
52 | Cc1ccc(C(=O)N(CCCN)C(c2nc3c(oc4ccc(Cl)cc43)c(=O)n2Cc2cccs2)C(C)C)cc1 (stereo not shown) [Compound 43] | < 30
53 | CCC(c1nc2c(oc3ccccc32)c(=O)n1Cc1ccccc1)N(CCCN)C(=O)c1ccc(C)cc1 (stereo not shown) [Compound 17] | < 30
54 | Cc1ccc(C(=O)N(CCN)[C@@H](c2nc3c(oc4ccc(F)cc43)c(=O)n2Cc2ccco2)C(C)C)cc1F [Compound 186] | < 30
55 | CCCC(c1nc2c(oc3ccccc32)c(=O)n1Cc1ccccc1)N(CCCN)C(=O)c1ccc(C)cc1 (stereo not shown) [Compound 50] | < 30
56 | Cc1ccc(C(=O)N(CCCN)C(c2nc3c(oc4ccc(F)cc43)c(=O)n2Cc2cccs2)C(C)C)cc1 (stereo not shown) [Compound 74] | < 30
57 | Cc1ccc(C(=O)N(CCN)[C@@H](c2nc3c(oc4ccc(F)cc43)c(=O)n2Cc2ccc(Cl)s2)C(C)C)cc1 [Compound 182] | < 30
58 | COC(=O)c1ccc(Cn2c(C(C(C)C)N(CCCN)C(=O)c3ccc(C)cc3)nc3c(oc4ccc(F)cc43)c2=O)s1 (stereo not shown) [Compound 89] | < 30
59 | Cc1ccc(C(=O)N(CCCN)C(c2nc3c(oc4ccccc43)c(=O)n2Cc2ccc(Br)s2)C(C)C)cc1 (stereo not shown) [Compound 14] | < 30
60 | Cc1ccc(C(=O)N(CCN)C(c2nc3c(oc4ccc(Cl)cc43)c(=O)n2Cc2cc(Br)co2)C(C)C)cc1 (stereo not shown) [Compound 99] | < 30
61 | Cc1csc(Cn2c([C@@H](C(C)C)N(CCN)C(=O)c3ccc(C)c(F)c3)nc3c(oc4ccc(F)cc43)c2=O)c1 [Compound 176] | < 30

Reference: patent US20090214529A9, “KINESIN INHIBITORS” (TaiGen Biotechnology Co., Ltd., priority 2007, published 2009)
